Reference: PubChem BioAssay (NCI)
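Dose response: 5 concentrations. Exposure: 48 h. Format: 96-well plates. Endpoint: linear interpolation; highest concentration if not reached. GI50 is the concentration that inhibits growth by half. TGI: concentration producing complete growth inhibition.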

Legend:
Experiment in all cases: growth of human tumour cells (NCI), 48 h
786-0 renal = test system: 786-0 renal
A498 renal = test system: A498 renal
A549 NSCLC = test system: A549 NSCLC
ACHN renal = test system: ACHN renal
BT-549 breast = test system: BT-549 breast
CAKI-1 renal = test system: CAKI-1 renal
CCRF-CEM leukemia = test system: CCRF-CEM leukemia
COLO 205 colon = test system: COLO 205 colon
DU-145 prostate = test system: DU-145 prostate
EKVX NSCLC = test system: EKVX NSCLC
HCC-2998 colon = test system: HCC-2998 colon
HCT-116 colon = test system: HCT-116 colon
HCT-15 colon = test system: HCT-15 colon
HL-60(TB) leukemia = test system: HL-60(TB) leukemia
HOP-62 NSCLC = test system: HOP-62 NSCLC
HOP-92 NSCLC = test system: HOP-92 NSCLC
HS 578T breast = test system: HS 578T breast
HT29 colon = test system: HT29 colon
IGROV1 ovarian = test system: IGROV1 ovarian
K-562 leukemia = test system: K-562 leukemia
KM12 colon = test system: KM12 colon
LOX IMVI melanoma = test system: LOX IMVI melanoma
M14 melanoma = test system: M14 melanoma
MALME-3M melanoma = test system: MALME-3M melanoma
MCF7 breast = test system: MCF7 breast
MDA-MB-231 breast = test system: MDA-MB-231 breast
MDA-MB-435 = test system: MDA-MB-435
MDA-MB-468 breast = test system: MDA-MB-468 breast
MOLT-4 leukemia = test system: MOLT-4 leukemia
NCI-H226 lung = test system: NCI-H226 lung
NCI-H23 lung = test system: NCI-H23 lung
NCI-H460 lung = test system: NCI-H460 lung
NCI-H522 lung = test system: NCI-H522 lung
NCI/ADR-RES ovarian = test system: NCI/ADR-RES ovarian
OVCAR-3 ovarian = test system: OVCAR-3 ovarian
OVCAR-4 ovarian = test system: OVCAR-4 ovarian
OVCAR-5 ovarian = test system: OVCAR-5 ovarian
OVCAR-8 ovarian = test system: OVCAR-8 ovarian
PC-3 prostate = test system: PC-3 prostate
RXF 393 renal = test system: RXF 393 renal
SF-268 CNS = test system: SF-268 CNS
SF-295 CNS = test system: SF-295 CNS
SF-539 CNS = test system: SF-539 CNS
SK-MEL-2 melanoma = test system: SK-MEL-2 melanoma
SK-MEL-28 melanoma = test system: SK-MEL-28 melanoma
SK-MEL-5 melanoma = test system: SK-MEL-5 melanoma
SK-OV-3 ovarian = test system: SK-OV-3 ovarian
SN12C renal = test system: SN12C renal
SNB-19 CNS = test system: SNB-19 CNS
SNB-75 CNS = test system: SNB-75 CNS
SR leukemia = test system: SR leukemia
SW-620 colon = test system: SW-620 colon
T-47D breast = test system: T-47D breast
TK-10 renal = test system: TK-10 renal
U251 CNS = test system: U251 CNS
UACC-257 melanoma = test system: UACC-257 melanoma
UACC-62 melanoma = test system: UACC-62 melanoma
UO-31 renal = test system: UO-31 renal

## C=C(C)[C@@H]1CC[C@]2(COP(=O)(OCC)OCC)CC[C@]3(C)[C@H](CC[C@@H]4[C@@](C)(CCCN)[C@H](C(=C)C)CC[C@]43C)[C@@H]12
786-0 renal
  GI50: 5.04 µM
  TGI: 19.9 µM
A498 renal
  GI50: 12.5 µM
  TGI: 25.2 µM
A549 NSCLC
  GI50: 4.45 µM
  TGI: 18.5 µM
ACHN renal
  GI50: 5.54 µM
  TGI: 18.1 µM
BT-549 breast
  GI50: 9.88 µM
  TGI: 22.2 µM
CAKI-1 renal
  GI50: 4.12 µM
  TGI: 17.3 µM
CCRF-CEM leukemia
  GI50: 2.81 µM
  TGI: 11.3 µM
COLO 205 colon
  GI50: 4.56 µM
  TGI: 19.2 µM
DU-145 prostate
  GI50: 10.9 µM
  TGI: 23.8 µM
EKVX NSCLC
  GI50: 4.88 µM
  TGI: 18.5 µM
HCC-2998 colon
  GI50: 3.7 µM
  TGI: 15.1 µM
HCT-116 colon
  GI50: 2.92 µM
  TGI: 13.2 µM
HCT-15 colon
  GI50: 3.76 µM
  TGI: 13.7 µM
HL-60(TB) leukemia
  GI50: 2.87 µM
  TGI: 9.23 µM
HOP-62 NSCLC
  GI50: 11.1 µM
  TGI: 24.9 µM
HOP-92 NSCLC
  GI50: 2.63 µM
  TGI: 16.2 µM
HS 578T breast
  GI50: 4.67 µM
  TGI: 24.3 µM
HT29 colon
  GI50: 4.03 µM
  TGI: 16.2 µM
IGROV1 ovarian
  GI50: 11.4 µM
  TGI: 23.7 µM
K-562 leukemia
  GI50: 3.77 µM
  TGI: > 100 µM
KM12 colon
  GI50: 4.73 µM
  TGI: 17.8 µM
LOX IMVI melanoma
  GI50: 4.77 µM
  TGI: 17.2 µM
M14 melanoma
  GI50: 5.13 µM
  TGI: 20.4 µM
MALME-3M melanoma
  GI50: 7.16 µM
  TGI: 19.7 µM
MCF7 breast
  GI50: 3.08 µM
  TGI: 12 µM
MDA-MB-231 breast
  GI50: 7.53 µM
  TGI: 20.1 µM
MDA-MB-435
  GI50: 4.07 µM
  TGI: 17.4 µM
MDA-MB-468 breast
  GI50: 2.56 µM
  TGI: 11.3 µM
MOLT-4 leukemia
  GI50: 3.27 µM
  TGI: 16.1 µM
NCI-H226 lung
  GI50: 5.64 µM
  TGI: 22 µM
NCI-H23 lung
  GI50: 4.73 µM
  TGI: 17.8 µM
NCI-H460 lung
  GI50: 3.43 µM
  TGI: 14.2 µM
NCI-H522 lung
  GI50: 3.01 µM
  TGI: 14.1 µM
NCI/ADR-RES ovarian
  GI50: 5.45 µM
  TGI: 21.7 µM
OVCAR-3 ovarian
  GI50: 3 µM
  TGI: 12.7 µM
OVCAR-4 ovarian
  GI50: 5.35 µM
  TGI: 21.8 µM
OVCAR-5 ovarian
  GI50: 10.9 µM
  TGI: 22.8 µM
OVCAR-8 ovarian
  GI50: 6.35 µM
  TGI: 23.1 µM
PC-3 prostate
  GI50: 2.24 µM
  TGI: 11.4 µM
RXF 393 renal
  GI50: 3.42 µM
  TGI: 15.2 µM
SF-268 CNS
  GI50: 6.46 µM
  TGI: 23.8 µM
SF-295 CNS
  GI50: 4.43 µM
  TGI: 17.6 µM
SF-539 CNS
  GI50: 10.4 µM
  TGI: 22.1 µM
SK-MEL-2 melanoma
  GI50: 9.64 µM
  TGI: 22.6 µM
SK-MEL-28 melanoma
  GI50: 7.84 µM
  TGI: 20.2 µM
SK-MEL-5 melanoma
  GI50: 3.47 µM
  TGI: 12.9 µM
SK-OV-3 ovarian
  GI50: 13.6 µM
  TGI: 28.7 µM
SN12C renal
  GI50: 4.37 µM
  TGI: 16.6 µM
SNB-19 CNS
  GI50: 10 µM
  TGI: 21.7 µM
SNB-75 CNS
  GI50: 5.01 µM
  TGI: 20 µM
SR leukemia
  GI50: 3.66 µM
  TGI: > 100 µM
SW-620 colon
  GI50: 3.49 µM
  TGI: 15.1 µM
T-47D breast
  GI50: 3.23 µM
  TGI: 13.9 µM
TK-10 renal
  GI50: 12 µM
  TGI: 25.2 µM
U251 CNS
  GI50: 6.51 µM
  TGI: 20.7 µM
UACC-257 melanoma
  GI50: 5.55 µM
  TGI: 18.3 µM
UACC-62 melanoma
  GI50: 4.45 µM
  TGI: 17.2 µM
UO-31 renal
  GI50: 3.58 µM
  TGI: 15.2 µM
